Assay results published in ChEMBL document CHEMBL3045236, “Conventional and microwave techniques for synthesis and antimicrobial studies of novel 1-[2-(2-chloro(3-quinolyl))-5-(4-nitrophenyl)-(1,3,4-oxadiazolin-3-yl)]-3-(aryl)prop-2-en-1-ones” (2012).
Values after ≈ are worked out from the molar mass of the structure shown.

Legend:
Type in all cases: functional
[1] = test system: Aspergillus clavatus; assay: Antimicrobial activity against Aspergillus clavatus MTCC 1323
[2] = test system: Aspergillus niger; assay: Antimicrobial activity against Aspergillus niger MTCC 282
[3] = test system: Candida albicans; assay: Antimicrobial activity against Candida albicans MTCC 227
[4] = test system: Streptococcus pyogenes; assay: Antimicrobial activity against Streptococcus pyogenes MTCC 442 after 24 and 48 hr by serial broth dilution method
[5] = test system: Staphylococcus aureus; assay: Antimicrobial activity against Staphylococcus aureus MTCC 96 after 24 and 48 hr by serial broth dilution method
[6] = test system: Pseudomonas aeruginosa; assay: Antimicrobial activity against Pseudomonas aeruginosa MTCC 1688 after 24 and 48 hr by serial broth dilution method
[7] = test system: Escherichia coli; assay: Antimicrobial activity against Escherichia coli MTCC 443 after 24 and 48 hr by serial broth dilution method

Structure (SMILES) | MIC [1] [µg/mL] | MIC [2] [µg/mL] | MIC [3] [µg/mL] | MIC [4] [µg/mL] | MIC [5] [µg/mL] | MIC [6] [µg/mL] | MIC [7] [µg/mL]
Cc1ccc(/C=C/C(=O)N2N=C(c3ccc([N+](=O)[O-])cc3)OC2c2cc3ccccc3nc2Cl)cc1 (stereo unspecified) | 1000 (≈ 2000 µM) | 100 (≈ 200 µM) | 250 (≈ 501 µM) | 250 (≈ 501 µM) | 200 (≈ 401 µM) | 100 (≈ 200 µM) | 200 (≈ 401 µM)
COc1ccc(/C=C/C(=O)N2N=C(c3ccc([N+](=O)[O-])cc3)OC2c2cc3ccccc3nc2Cl)cc1 (stereo unspecified) | 100 (≈ 194 µM) | 1000 (≈ 1940 µM) | 500 (≈ 971 µM) | 100 (≈ 194 µM) | 100 (≈ 194 µM) | 500 (≈ 971 µM) | 100 (≈ 194 µM)
COc1cc(/C=C/C(=O)N2N=C(c3ccc([N+](=O)[O-])cc3)OC2c2cc3ccccc3nc2Cl)cc(OC)c1OC (stereo unspecified) | 100 (≈ 174 µM) | 100 (≈ 174 µM) | 100 (≈ 174 µM) | 500 (≈ 870 µM) | 500 (≈ 870 µM) | 200 (≈ 348 µM) | 200 (≈ 348 µM)
O=C(/C=C/c1ccccc1Cl)N1N=C(c2ccc([N+](=O)[O-])cc2)OC1c1cc2ccccc2nc1Cl (stereo unspecified) | 500 (≈ 963 µM) | 500 (≈ 963 µM) | 250 (≈ 481 µM) | 500 (≈ 963 µM) | 500 (≈ 963 µM) | 500 (≈ 963 µM) | 500 (≈ 963 µM)
O=C(/C=C/c1cccc(Cl)c1)N1N=C(c2ccc([N+](=O)[O-])cc2)OC1c1cc2ccccc2nc1Cl (stereo unspecified) | 500 (≈ 963 µM) | 100 (≈ 193 µM) | 100 (≈ 193 µM) | 100 (≈ 193 µM) | 100 (≈ 193 µM) | 200 (≈ 385 µM) | 100 (≈ 193 µM)
O=C(/C=C/c1ccc(Cl)cc1)N1N=C(c2ccc([N+](=O)[O-])cc2)OC1c1cc2ccccc2nc1Cl (stereo unspecified) | 1000 (≈ 1930 µM) | 200 (≈ 385 µM) | 100 (≈ 193 µM) | 500 (≈ 963 µM) | 1000 (≈ 1930 µM) | 100 (≈ 193 µM) | 200 (≈ 385 µM)
O=C(/C=C/c1ccccc1[N+](=O)[O-])N1N=C(c2ccc([N+](=O)[O-])cc2)OC1c1cc2ccccc2nc1Cl (stereo unspecified) | 100 (≈ 189 µM) | 500 (≈ 944 µM) | 500 (≈ 944 µM) | 200 (≈ 377 µM) | 500 (≈ 944 µM) | 50 (≈ 94.4 µM) | 50 (≈ 94.4 µM)
O=C(/C=C/c1cccc([N+](=O)[O-])c1)N1N=C(c2ccc([N+](=O)[O-])cc2)OC1c1cc2ccccc2nc1Cl (stereo unspecified) | 500 (≈ 944 µM) | 100 (≈ 189 µM) | 100 (≈ 189 µM) | 100 (≈ 189 µM) | 500 (≈ 944 µM) | 500 (≈ 944 µM) | 1000 (≈ 1890 µM)
O=C(/C=C/c1ccc([N+](=O)[O-])cc1)N1N=C(c2ccc([N+](=O)[O-])cc2)OC1c1cc2ccccc2nc1Cl (stereo unspecified) | 100 (≈ 189 µM) | 1000 (≈ 1890 µM) | 500 (≈ 944 µM) | 500 (≈ 944 µM) | 100 (≈ 189 µM) | 500 (≈ 944 µM) | 100 (≈ 189 µM)
O=C(/C=C/c1ccccc1O)N1N=C(c2ccc([N+](=O)[O-])cc2)OC1c1cc2ccccc2nc1Cl (stereo unspecified) | 500 (≈ 998 µM) | 500 (≈ 998 µM) | 1000 (≈ 2000 µM) | 250 (≈ 499 µM) | 500 (≈ 998 µM) | 250 (≈ 499 µM) | 500 (≈ 998 µM)
O=C(/C=C/c1cccc(O)c1)N1N=C(c2ccc([N+](=O)[O-])cc2)OC1c1cc2ccccc2nc1Cl (stereo unspecified) | 100 (≈ 200 µM) | 200 (≈ 399 µM) | 500 (≈ 998 µM) | 100 (≈ 200 µM) | 200 (≈ 399 µM) | 50 (≈ 99.8 µM) | 25 (≈ 49.9 µM)
O=C(/C=C/c1ccc(O)cc1)N1N=C(c2ccc([N+](=O)[O-])cc2)OC1c1cc2ccccc2nc1Cl (stereo unspecified) | 500 (≈ 998 µM) | 100 (≈ 200 µM) | 500 (≈ 998 µM) | 500 (≈ 998 µM) | 100 (≈ 200 µM) | 50 (≈ 99.8 µM) | 250 (≈ 499 µM)
CC1(C)S[C@@H]2[C@H](NC(=O)[C@H](N)c3ccccc3)C(=O)N2[C@H]1C(=O)O [AMPICILLIN] | – | – | – | 100 (≈ 286 µM) | 250 (≈ 715 µM) | 100 (≈ 286 µM) | 100 (≈ 286 µM)
COC1=CC(=O)C[C@@H](C)[C@]12Oc1c(Cl)c(OC)cc(OC)c1C2=O [GRISEOFULVIN] | 100 (≈ 283 µM) | 100 (≈ 283 µM) | 500 (≈ 1420 µM) | – | – | – | –
